Test results reported in patent US4740505A, “Pyridazinyloxy (or thio) phenyl phosphates” (priority 1985, dated 1988).
Where two headings read alike, the source gives them in different places.

Assays:
[1] = tested on: Tetranychus urticae; assay: Effectiveness on Tetranychus urticae (rating of effects on kidney bean seedlings); assay type: in vivo; conditions: 500 ppm, 20 ml, rating based on percent decrease; for Rating of effect Day-2: 2nd day after treatment; for Rating of effect Day-7: 7th day after treatment
Description: Effectiveness on Tetranychus urticae
Each of the compounds listed in the following table is processed into an emulsifiable concentrate in accordance with the formulation of Example 6. The emulsifiable concentrate is diluted with water (Dyne®, a spreading agent produced by Takeda Chemical Ind. Ltd., as diluted 3,000-fold) to prepare a 500 ppm aqueous solution. Ten female adult of Tetranychus urticae are put into each kidney been seedling raised in a jiffy pot (6 cm in diameter), and left in a glass house at 28° C. for 24 hours. Each pot is taken out of the glass house; 20 ml of the aqueous solution as prepared above is spread over each kidney bean seedling. The jiffy pots are laid in the glass house again. Larvae and adult which are alive on the leaves are counted at the 2nd and 7th days after the spreading treatment. The test is repeated two times. The degrees are determined on the basis of percent decrease.

[2] = tested on: Spodoptera litura; assay: Effectiveness on Spodoptera litura (mortality of 3rd instar larvae on sprayed soybean leaves); assay type: in vivo
Description: Effectiveness of Spondoptera litura
Each of the test compounds listed in the following table is processed into an emulsifiable concentrate in accordance with the formulation of Example 6. The emulsifiable concentrate is diluted with water (Dyne®, a spreading agent produced by Takeda Chemical Ind. Ltd., as diluted 3,000-fold) to prepare a 100 ppm aqueous solution.
Using a spray gun (nozzle pressure of 1 kg/cm^2 gauge), 20 ml of the aqueous 100 ppm solution is sprayed over soybean seedlings in a spraying chamber (on 10th day after germination) which have been raised in jiffy pots (6 cm in diameter). Two main leaves are respectively cut off from the seedlings 2 hours and 6 days after the spraying. Each of the leaves is put into an ice cream cup (diameter: 6 cm, depth: 4 cm), and 10 larvae of Spodoptera litura at the 3rd instar are put into each of the cups. The cups are left in a room at 25° C.; after 48 hours, dead larvae are counted. The test is repeated two times. The results are shown in terms of mortality (%) in Table 6. [formula]
The following compounds are used for controls.
The same compounds are used for controls also in the following Test Examples.

[3] = Toxicological test: oral acute toxicity in mice; parameters: species or system mice (ddY-SLC strained male); conditions: mouse, in vivo, five-week aged ddY-SLC male mice
[4] = 100 ppm spray, leaves cut 6 days after spraying, dead larvae counted after 48 hours, 25° C., read-out: Mortality 6th day after spraying
[5] = 48 h, read-out: Mortality 2 hours after spraying
[6] = 100 ppm spray, leaves cut 2 hours after spraying, dead larvae counted after 48 hours, 25° C., read-out: Mortality 2 hours after spraying

SMILES	Rating of effect Day-2 [1]	Rating of effect Day-7 [1]	mortality at 100 ppm [2, 4]	mortality at 100 ppm [2, 5]	LD50 [3]	mortality at 100 ppm ([2]; 48 h, read-out: Mortality 6th day after spraying)	mortality at 100 ppm [2, 6]
CCCSP(=O)(OCC)Oc1ccc(Oc2ccc(Cl)nn2)cc1 (stereo not drawn) [Compound No. 2, O-Ethyl-S-n-propyl-O-[4-(3-chloropyridazinyl-6-oxy)phenyl]phosphorothioate]	3 (≥90)	3 (≥90)	100%	100%			
CCCSP(=S)(OCC)Oc1ccc(Oc2ccc(Cl)nn2)cc1 (stereo not drawn) [Compound No. 3]	3 (≥90)	3 (≥90)	90%	100%	~300 mg/kg		
CCCSP(=O)(OCC)Oc1ccc(Sc2ccc(Cl)nn2)cc1 (stereo not drawn) [Compound No. 4]	3 (≥90)	3 (≥90)	95%	100%	> 300 mg/kg		
CCCSP(=O)(OCC)Oc1cccc(Oc2ccc(N(C)C)nn2)c1 (stereo not drawn) [Compound No. 21, O-Ethyl-S-n-propyl-O-[3-(3-dimethylaminopyridazinyl-6-oxy)phenyl]phosphorothioate]	3 (≥90)	3 (≥90)	100%	100%			
CCC(C)SP(=O)(OC)Oc1ccccc1Oc1ccc(Cl)nn1 (stereo not drawn) [Compound No. 27, O-Methyl-S-sec-butyl-O-[2-(3-chloropyridazinyl-6-oxy)phenyl]phosphorothioate]	3 (≥90)	3 (≥90)	100%	100%			
CCCSP(=O)(OCC)Oc1ccccc1Oc1ccc(Cl)nn1 (stereo not drawn) [Compound No. 29, O-Ethyl-S-n-propyl-O-[2-(3-chloropyridazinyl-6-oxy)phenyl]phosphorothioate]	3 (≥90)	3 (≥90)		100%		90%	
CCCSP(=S)(OCC)Oc1ccccc1Oc1ccc(Cl)nn1 (stereo not drawn) [Compound No. 30, O-Ethyl-S-n-propyl-O-[2-(3-chloropyridazinyl-6-oxy)phenyl]phosphorodithioate]	3 (≥90)	3 (≥90)	100%	100%	> 300 mg/kg		
CCCSP(=S)(OCC)Oc1ccccc1Sc1ccc(Cl)nn1 (stereo not drawn) [Compound No. 32, O-Ethyl-S-n-propyl-O-[2-(3-chloropyridazinyl-6-thio)phenyl]phosphorodithioate]	3 (≥90)	3 (≥90)			> 300 mg/kg		
CCCSP(=O)(OCC)Oc1ccccc1Oc1ccc(OC)nn1 (stereo not drawn) [Compound No. 39, O-Ethyl-S-n-propyl-O-[2-(3-methoxypyridazinyl-6-oxy)phenyl]phosphorothioate]	3 (≥90)	3 (≥90)	100%	100%	~300 mg/kg		
CCCSP(=S)(OCC)Oc1ccccc1Oc1ccc(OC)nn1 (stereo not drawn) [Compound No. 40]	3 (≥90)	3 (≥90)	100%	100%	> 300 mg/kg		
COP(=S)(OC)Oc1ccc([N+](=O)[O-])c(C)c1 [Fenitrothion, reference compound]	3 (≥90)	0 (≤20)	0%				80%
CCCSP(=S)(OCC)Oc1ccc(Cl)cc1Cl (stereo not drawn) [Prothiophos, reference compound]	3 (≥90)	0 (≤20)	10%				100%
CCCSP(=O)(OCC)Oc1ccc(Oc2cccnn2)cc1 (stereo not drawn) [compound 1]	3 (≥90)	3 (≥90)	90%	100%			
CCCSP(=S)(OCC)Oc1ccc(Sc2ccc(Cl)nn2)cc1 (stereo not drawn) [compound 5]	3 (≥90)	3 (≥90)			> 300 mg/kg		
CCCSP(=O)(OCC)Oc1ccc(Oc2ccc(N(C)C)nn2)cc1 (stereo not drawn) [compound 6]			90%	100%			
CCCSP(=S)(OCC)Oc1ccc(Oc2ccc(N(C)C)nn2)cc1 (stereo not drawn) [compound 7]					> 300 mg/kg		
CCCSP(=O)(OCC)Oc1ccc(Sc2ccc(N(C)C)nn2)cc1 (stereo not drawn) [compound 8]	3 (≥90)	3 (≥90)			~300 mg/kg		
CCCSP(=S)(OCC)Oc1ccc(Sc2ccc(N(C)C)nn2)cc1 (stereo not drawn) [compound 9]	3 (≥90)	3 (≥90)			> 300 mg/kg		
CCCSP(=S)(OCC)Oc1ccc(Oc2ccc(NC(C)CC)nn2)cc1 (stereo not drawn) [compound 10]					> 300 mg/kg		
CCCSP(=O)(OCC)Oc1ccc(Sc2ccc(NC(C)CC)nn2)cc1 (stereo not drawn) [compound 11]					> 300 mg/kg		

SMILES	Rating of effect Day-2 [1]	Rating of effect Day-7 [1]	mortality at 100 ppm [2, 4]	mortality at 100 ppm [2, 5]	LD50 [3]	mortality at 100 ppm ([2]; 48 h, read-out: Mortality 6th day after spraying)	mortality at 100 ppm [2, 6]
CCCSP(=S)(OCC)Oc1ccc(Sc2ccc(NC(C)CC)nn2)cc1 (stereo not drawn) [compound 12]					> 300 mg/kg		
CCCSP(=O)(OCC)Oc1ccc(Oc2ccc(N(C(C)=O)C(C)CC)nn2)cc1 (stereo not drawn) [compound 13]	3 (≥90)	3 (≥90)					
CCC(C)SP(=O)(OC)Oc1ccc(Oc2ccc(Cl)nn2)c(C)c1 (stereo not drawn) [compound 14]	3 (≥90)	3 (≥90)					
CCCSP(=O)(OCC)Oc1ccc(Oc2ccc(Cl)nn2)c(C)c1 (stereo not drawn) [compound 15]	3 (≥90)	3 (≥90)	100%	100%			
CCCSP(=S)(OCC)Oc1ccc(Oc2ccc(Cl)nn2)c(C)c1 (stereo not drawn) [compound 16]	3 (≥90)	3 (≥90)	100%	100%	> 300 mg/kg		
CCCSP(=O)(OCC)Oc1cccc(Oc2cccnn2)c1 (stereo not drawn) [compound 17]	3 (≥90)	3 (≥90)	100%	100%			
CCCSP(=O)(OCC)Oc1cccc(Oc2ccc(Cl)nn2)c1 (stereo not drawn) [compound 18]	3 (≥90)	3 (≥90)	100%	100%	> 300 mg/kg		
CCCSP(=O)(OCC)Oc1cccc(Sc2ccc(Cl)nn2)c1 (stereo not drawn) [compound 19]	3 (≥90)	3 (≥90)	90%	100%	> 300 mg/kg		
CCCSP(=S)(OCC)Oc1cccc(Sc2ccc(Cl)nn2)c1 (stereo not drawn) [compound 20]	3 (≥90)	3 (≥90)	90%	100%	> 300 mg/kg		
CCCSP(=O)(OCC)Oc1cccc(Oc2ccc(NC(C)CC)nn2)c1 (stereo not drawn) [compound 22]			100%	100%			
CCCSP(=O)(OCC)Oc1ccccc1Oc1ccc(Br)nn1 (stereo not drawn) [compound 24]	3 (≥90)	3 (≥90)	100%	100%	~300 mg/kg		
CCC(C)SP(=O)(OC)Oc1ccccc1Sc1ccc(Cl)nn1 (stereo not drawn) [compound 28]	3 (≥90)	3 (≥90)	95%	100%			
CCCSP(=O)(OCC)Oc1ccccc1Sc1ccc(Cl)nn1 (stereo not drawn) [compound 31]	3 (≥90)	3 (≥90)			> 300 mg/kg		
CCOP(=O)(Oc1ccccc1Oc1ccc(Cl)nn1)SC(C)C (stereo not drawn) [compound 33]					> 300 mg/kg		
CCOP(=O)(Oc1ccccc1Oc1ccc(Cl)nn1)SC(C)CC (stereo not drawn) [compound 36]			100%	100%			
CCCSP(=O)(OCC)Oc1ccccc1Oc1ccc(C)nn1 (stereo not drawn) [compound 37]	3 (≥90)	3 (≥90)					
CCCSP(=O)(OCC)Oc1ccccc1Oc1ccc(N)nn1 (stereo not drawn) [compound 43]	3 (≥90)	3 (≥90)					
CCCSP(=S)(OCC)Oc1ccccc1Oc1ccc(N)nn1 (stereo not drawn) [compound 44]	3 (≥90)	3 (≥90)			> 300 mg/kg		
CCCSP(=O)(OCC)Oc1ccccc1Sc1ccc(N(C)C)nn1 (stereo not drawn) [compound 45]	3 (≥90)	3 (≥90)					
CCCSP(=S)(OCC)Oc1ccccc1Sc1ccc(NC(C)CC)nn1 (stereo not drawn) [compound 46]	3 (≥90)	3 (≥90)			> 300 mg/kg		
